{
  "source": "patent US12186304B2",
  "about": "“Method for treating cancer by combination of IAP inhibitor and modulator of immune checkpoint molecule” (ASCENTAGE PHARMA (SUZHOU) CO., LTD., priority 2018, dated 2025)",
  "key": {"[1]": {"test": "Phase I study (NCT03386526): safety and tolerability", "protocol": "The Phase I dose escalation study included two parts.\nPembrolizumab was administered 200 mg IV on day 1 of a 21-day-cycle, until disease progression or untolerated toxicity.\nThe inclusion criteria for the Phase I study are: Age≥18 years; ECOG PS: 0-1;\nAdequate hematologic, renal and liver functions; Advanced or metastatic solid tumor patients must be refractory to or intolerant of existing therapy(ies) known to provide clinical benefit for their condition."}, "[2]": {"test": "Phase I study: APG-1387 pharmacokinetics in plasma (LC-MS/MS)", "assay_type": "in vivo, human", "protocol": "APG-1387 was IV administered for 30 minutes once weekly in a 21-day-cycle."}, "[3]": {"settings": "over the range of 20 to 45 mg, preliminary PK data"}},
  "data": [
    {"smiles": "CN[C@@H](C)C(=O)N[C@H]1CN(S(=O)(=O)c2cccc(S(=O)(=O)N3CC[C@H]4CC[C@@H](C(=O)NC(c5ccccc5)c5ccccc5)N4C(=O)[C@@H](NC(=O)[C@H](C)NC)C3)c2)CC[C@H]2CC[C@@H](C(=O)NC(c3ccccc3)c3ccccc3)N2C1=O", "note": "[APG-1387]", "values": [
      {"measurement": "TRAEs (all Grades): Phlebitis, patients", "setting": "[1]; APG-1387 45 mg", "value": 0},
      {"measurement": "TRAEs (all Grades): Pneumonitis, patients", "setting": "[1]; APG-1387 45 mg", "value": 0},
      {"measurement": "TRAEs (all Grades): Pruritus, patients", "setting": "[1]; APG-1387 45 mg", "value": 0},
      {"measurement": "TRAEs (all Grades): Rash maculo-papular, patients", "setting": "[1]; APG-1387 45 mg", "value": 0},
      {"measurement": "TRAEs (all Grades): Tumor pain, patients", "setting": "[1]; APG-1387 45 mg", "value": 0},
      {"measurement": "# of pts discontinued treatment: Adverse Event", "setting": "[1]; APG-1387 60 mg", "value": 2},
      {"measurement": "# of pts discontinued treatment: Clinical progression", "setting": "[1]; APG-1387 60 mg", "value": 1},
      {"measurement": "# of pts discontinued treatment: Disease progression", "setting": "[1]; APG-1387 60 mg", "value": 1},
      {"measurement": "# of pts discontinued treatment: Lack of efficacy", "setting": "[1]; APG-1387 60 mg", "value": 0},
      {"measurement": "TRAEs (all Grades): Aspartate aminotransferase increased, patients", "setting": "[1]; APG-1387 60 mg", "value": 0},
      {"measurement": "TRAEs (all Grades): Bell's palsy, % of patients", "setting": "[1]; APG-1387 60 mg", "value": "(20.0%)"},
      {"measurement": "TRAEs (all Grades): Bell's palsy, patients", "setting": "[1]; APG-1387 60 mg", "value": 1},
      {"measurement": "TRAEs (all Grades): Blood bilirubin increased, % of patients", "setting": "[1]; APG-1387 60 mg", "value": "(20.0%)"},
      {"measurement": "TRAEs (all Grades): Blood bilirubin increased, patients", "setting": "[1]; APG-1387 60 mg", "value": 1},
      {"measurement": "TRAEs (all Grades): Decreased appetite, patients", "setting": "[1]; APG-1387 60 mg", "value": 0},
      {"measurement": "TRAEs (all Grades): Dehydration, patients", "setting": "[1]; APG-1387 60 mg", "value": 0},
      {"measurement": "TRAEs (all Grades): Diarrhoea, patients", "setting": "[1]; APG-1387 60 mg", "value": 0},
      {"measurement": "TRAEs (all Grades): Dyspepsia, patients", "setting": "[1]; APG-1387 60 mg", "value": 0},
      {"measurement": "TRAEs (all Grades): Eructation, patients", "setting": "[1]; APG-1387 60 mg", "value": 0},
      {"measurement": "TRAEs (all Grades): Fatigue, patients", "setting": "[1]; APG-1387 60 mg", "value": 0},
      {"measurement": "TRAEs (all Grades): Headache, % of patients", "setting": "[1]; APG-1387 60 mg", "value": "(20.0%)"},
      {"measurement": "TRAEs (all Grades): Headache, patients", "setting": "[1]; APG-1387 60 mg", "value": 1},
      {"measurement": "TRAEs (all Grades): Lipase increased, % of patients", "setting": "[1]; APG-1387 60 mg", "value": "(20.0%)"},
      {"measurement": "TRAEs (all Grades): Lipase increased, patients", "setting": "[1]; APG-1387 60 mg", "value": 1},
      {"measurement": "TRAEs (all Grades): Myalgia, patients", "setting": "[1]; APG-1387 60 mg", "value": 0},
      {"measurement": "TRAEs (all Grades): Nausea, patients", "setting": "[1]; APG-1387 60 mg", "value": 0},
      {"measurement": "TRAEs (all Grades): Peripheral sensory neuropathy, patients", "setting": "[1]; APG-1387 60 mg", "value": 0},
      {"measurement": "TRAEs (all Grades): Phlebitis, patients", "setting": "[1]; APG-1387 60 mg", "value": 0},
      {"measurement": "TRAEs (all Grades): Pneumonitis, % of patients", "setting": "[1]; APG-1387 60 mg", "value": "(20.0%)"},
      {"measurement": "TRAEs (all Grades): Pneumonitis, patients", "setting": "[1]; APG-1387 60 mg", "value": 1},
      {"measurement": "TRAEs (all Grades): Pruritus, % of patients", "setting": "[1]; APG-1387 60 mg", "value": "(20.0%)"},
      {"measurement": "TRAEs (all Grades): Pruritus, patients", "setting": "[1]; APG-1387 60 mg", "value": 1},
      {"measurement": "TRAEs (all Grades): Rash maculo-papular, % of patients", "setting": "[1]; APG-1387 60 mg", "value": "(20.0%)"},
      {"measurement": "TRAEs (all Grades): Rash maculo-papular, patients", "setting": "[1]; APG-1387 60 mg", "value": 1},
      {"measurement": "TRAEs (all Grades): Tumor pain, patients", "setting": "[1]; APG-1387 60 mg", "value": 0},
      {"measurement": "MTD of APG-1387 monotherapy", "setting": "[1]; IV once weekly in a 21-day-cycle", "value": 45, "unit": "mg"},
      {"measurement": "# of pts discontinued treatment: Adverse Event", "setting": "[1]; Overall", "value": 3},
      {"measurement": "# of pts discontinued treatment: Clinical progression", "setting": "[1]; Overall", "value": 2},
      {"measurement": "# of pts discontinued treatment: Disease progression", "setting": "[1]; Overall", "value": 14},
      {"measurement": "# of pts discontinued treatment: Lack of efficacy", "setting": "[1]; Overall", "value": 2},
      {"measurement": "TRAEs (all Grades): Aspartate aminotransferase increased, % of patients", "setting": "[1]; Overall", "value": "(4.2%)"},
      {"measurement": "TRAEs (all Grades): Aspartate aminotransferase increased, patients", "setting": "[1]; Overall", "value": 1},
      {"measurement": "TRAEs (all Grades): Bell's palsy, % of patients", "setting": "[1]; Overall", "value": "(8.4%)"},
      {"measurement": "TRAEs (all Grades): Bell's palsy, patients", "setting": "[1]; Overall", "value": 2},
      {"measurement": "TRAEs (all Grades): Blood bilirubin increased, % of patients", "setting": "[1]; Overall", "value": "(4.2%)"},
      {"measurement": "TRAEs (all Grades): Blood bilirubin increased, patients", "setting": "[1]; Overall", "value": 1},
      {"measurement": "TRAEs (all Grades): Decreased appetite, % of patients", "setting": "[1]; Overall", "value": "(8.3%)"},
      {"measurement": "TRAEs (all Grades): Decreased appetite, patients", "setting": "[1]; Overall", "value": 2},
      {"measurement": "TRAEs (all Grades): Dehydration, % of patients", "setting": "[1]; Overall", "value": "(4.2%)"},
      {"measurement": "TRAEs (all Grades): Dehydration, patients", "setting": "[1]; Overall", "value": 1},
      {"measurement": "TRAEs (all Grades): Diarrhoea, % of patients", "setting": "[1]; Overall", "value": "(4.2%)"},
      {"measurement": "TRAEs (all Grades): Diarrhoea, patients", "setting": "[1]; Overall", "value": 1},
      {"measurement": "TRAEs (all Grades): Dyspepsia, % of patients", "setting": "[1]; Overall", "value": "(4.2%)"},
      {"measurement": "TRAEs (all Grades): Dyspepsia, patients", "setting": "[1]; Overall", "value": 1},
      {"measurement": "TRAEs (all Grades): Eructation, patients", "setting": "[1]; Overall", "value": 0},
      {"measurement": "TRAEs (all Grades): Fatigue, % of patients", "setting": "[1]; Overall", "value": "(12.5%)"},
      {"measurement": "TRAEs (all Grades): Fatigue, patients", "setting": "[1]; Overall", "value": 3},
      {"measurement": "TRAEs (all Grades): Headache, % of patients", "setting": "[1]; Overall", "value": "(8.3%)"},
      {"measurement": "TRAEs (all Grades): Headache, patients", "setting": "[1]; Overall", "value": 2},
      {"measurement": "TRAEs (all Grades): Lipase increased, % of patients", "setting": "[1]; Overall", "value": "(4.2%)"},
      {"measurement": "TRAEs (all Grades): Lipase increased, patients", "setting": "[1]; Overall", "value": 1},
      {"measurement": "TRAEs (all Grades): Myalgia, % of patients", "setting": "[1]; Overall", "value": "(4.2%)"},
      {"measurement": "TRAEs (all Grades): Myalgia, patients", "setting": "[1]; Overall", "value": 1},
      {"measurement": "TRAEs (all Grades): Nausea, % of patients", "setting": "[1]; Overall", "value": "(8.3%)"},
      {"measurement": "TRAEs (all Grades): Nausea, patients", "setting": "[1]; Overall", "value": 2},
      {"measurement": "TRAEs (all Grades): Peripheral sensory neuropathy, % of patients", "setting": "[1]; Overall", "value": "(4.2%)"},
      {"measurement": "TRAEs (all Grades): Peripheral sensory neuropathy, patients", "setting": "[1]; Overall", "value": 1},
      {"measurement": "TRAEs (all Grades): Phlebitis, % of patients", "setting": "[1]; Overall", "value": "(4.2%)"},
      {"measurement": "TRAEs (all Grades): Phlebitis, patients", "setting": "[1]; Overall", "value": 1},
      {"measurement": "TRAEs (all Grades): Pneumonitis, % of patients", "setting": "[1]; Overall", "value": "(4.2%)"},
      {"measurement": "TRAEs (all Grades): Pneumonitis, patients", "setting": "[1]; Overall", "value": 1},
      {"measurement": "TRAEs (all Grades): Pruritus, % of patients", "setting": "[1]; Overall", "value": "(8.3%)"},
      {"measurement": "TRAEs (all Grades): Pruritus, patients", "setting": "[1]; Overall", "value": 2},
      {"measurement": "TRAEs (all Grades): Rash maculo-papular, % of patients", "setting": "[1]; Overall", "value": "(8.3%)"},
      {"measurement": "TRAEs (all Grades): Rash maculo-papular, patients", "setting": "[1]; Overall", "value": 2},
      {"measurement": "TRAEs (all Grades): Tumor pain, patients", "setting": "[1]; Overall", "value": 0},
      {"measurement": "Dose Limiting Toxicity (DLTs) observed", "setting": "[1]; at 60 mg, lipase increase and facial nerve disorder", "value": "Two"},
      {"measurement": "Most common treatment-related adverse events (TRAEs) (>10%)", "setting": "[1]; patients", "value": "fatigue"},
      {"measurement": "tolerability", "setting": "[1]; patients, IV once weekly in a 21-day-cycle", "value": "well tolerated"},
      {"measurement": "increase in AUC", "setting": "[2]; [3]", "value": "approximately dose proportional"},
      {"measurement": "increase in Cmax", "setting": "[2]; [3]", "value": "approximately dose proportional"},
      {"measurement": "accumulation", "setting": "[2]; weekly dosing regimen", "value": "no significant accumulation"}
    ]}
  ]
}
